Where “and” joins values, the source holds several entries; their conditions need not be identical. Equal entries are not always repeated. Where two headings read alike, the source gives them in different places. Ends that are not written are not given here. * marks the point of attachment. FITC = O=C1OC2(c3ccc(O)cc3Oc3cc(O)ccc32)c2ccc(NC(=S)*)cc21
Columns and labels:
RSV N-RNA complex = target: T1, RSV N-RNA complex (Human respiratory syncytial virus A, UniProt P03418); assay: Fluorescence polarization inhibition of N-RNA binding to fluorescent probes
T1 construct: Full-length N was produced by co-expression with the C-terminal domain of RSV P protein in E. coli BL21(DE3); made in house; host or cells: E. coli BL21(DE3), co-transformed with pET-N and pGEX-P(161–241)
Excerpt: We next performed inhibition experiments for the F11-(N-RNA) complex by M76 (Figure 4B). FP values decreased with increasing competitor concentration. At saturation, FP nearly reached the value of free F11, showing that the F11 peptide could be nearly completely displaced. Since the same concentration range was used for NNTD and N-RNA, poor solubility of M76 can be ruled out to explain the saturation observed before complete displacement of F11 in the presence NNTD (Figure 3C). This reinforces the hypothesis of a second binding site on NNTD, outside the canonical P-binding site. […]
To probe the potency of M76 as an inhibitor, we carried out competition experiments with the M76 molecule and several BCNn peptides. M76 was able to displace the fluorescent probes from N-RNA, and inhibition curves were obtained (Figure 8E). Since we used different N concentrations to have similar dynamic ranges of FP for the series of fluorescent peptides, we cannot directly compare M76 IC50s. However, Kis may be compared.
Fluorescence polarization measurements were carried out on a Paradigm Detection Platform (Beckman Coulter, Brea, CA, USA) operating with a microplate reader, a fluorescein detection cartridge (excitation range 485/20 nm, emission range 535/25 nm for both parallel and perpendicular components) and the SpectraMax Pro 6.1 software (Molecular Devices, San Jose, CA, USA). Samples were placed in polystyrene black flat bottom 96-well microplates (Cellstar, Greiner bio-one, Frickenhausen, Germany) with 20 µL final volume in each well. If not stated otherwise, the final concentration of fluorescent ligands was 200 nM. The buffer was either 20 mM MES pH 6.5, salt-free or with 250 mM NaCl, or 20 mM Tris pH 8.0 salt-free or with 100 mM NaCl, supplemented with 0.01% Brij-35. Mixing was done using the corresponding plate reader option. The temperature was set to 20 °C. Data were recorded in top reading mode. Measurements were done in triplicate and after an incubation time of 30 min, if not indicated otherwise. Fluorescence polarization (FP) in mFP units was determined from the parallel (I∥) and perpendicular (I⊥) components of the emitted light according to Equation (4). A grating factor G of 1.2 was determined using 1 nM fluorescein in 1 mM NaOH and assuming a theoretical FP of 27 mFP [48]. Background signal was measured from wells containing only buffer, and the mean value was subtracted from each I∥ and I⊥ component. (4) FP (mP)=1000×(I∥−G∗I⊥)/(I∥+G×I⊥)
To assess inhibition of a complex between a fluorescent probe and N protein by peptides or the M76 molecule, the concentration of N was set to work with an FP range comprised between FPmin and ~80% FPmax. Peptides were added from 1 or 2 mM stock solution in water at neutral pH. M76 was added from 10 or 20 mM stock solutions in ethanol or in DMSO. […] Inhibition data were fitted with Origin 7, and in parallel with the Excel solver module. All data were compatible with an absence of cooperativity. FPmax and FPmin were fitted, and the maximal inhibition %i,max was set to 100%. (11) %i=100×[1−(FP−FPmin)/(FPmax−FPmin)] (12) %i=%i,max×[inhibitor]/[inhibitor]+IC50
Inhibition constants Ki were calculated on the IC50-to-Ki converter for a protein-ligand-inhibitor system (https://bioinfo-abcc.ncifcrf.gov/IC50_Ki_Converter/index.php, accessed on 24 August 2022), assuming a competitive mechanism (Equation (13)). This tool takes into account the free concentrations of protein and ligand. (13) Ki=(IC50−[protein]/2)/([peptide]/Kd+1)

RSV NNTD = target: T2, RSV NNTD (Human respiratory syncytial virus A, UniProt P03418); assay: Fluorescence polarization inhibition of NNTD binding to F11
T2 construct: The N-terminal domain NNTD (residues 31–252), containing a C-terminal 6x histidine tag; 6xHis (C); made in house; host or cells: E. coli BL21(DE3)
Description: We therefore tested competition between M76 and F11 by FP. Measurements were done in salt-free buffer to take advantage of the higher F11-NNTD affinity. The concentration of NNTD was set to 5 µM to benefit from a high range of FP values, comprised between FPmin and ~80% FPmax. […] We fitted the data with a Hill equation (Equation (12)), assuming that the maximal inhibition of F11 binding to the canonical site by M76 was obtained at saturation.
Fluorescence polarization measurements were carried out on a Paradigm Detection Platform (Beckman Coulter, Brea, CA, USA) operating with a microplate reader, a fluorescein detection cartridge (excitation range 485/20 nm, emission range 535/25 nm for both parallel and perpendicular components) and the SpectraMax Pro 6.1 software (Molecular Devices, San Jose, CA, USA). […] Mixing was done using the corresponding plate reader option. […] Data were recorded in top reading mode. […] Fluorescence polarization (FP) in mFP units was determined from the parallel (I∥) and perpendicular (I⊥) components of the emitted light according to Equation (4). A grating factor G of 1.2 was determined using 1 nM fluorescein in 1 mM NaOH and assuming a theoretical FP of 27 mFP [48]. Background signal was measured from wells containing only buffer, and the mean value was subtracted from each I∥ and I⊥ component. […]

[1] = target: T3, RSV nucleoprotein N-terminal domain NNTD (residues 31–252) (human respiratory syncytial virus, UniProt P03418 31-252); assay: fluorescence polarisation; 200 nM F11, NNTD varied; 20 mM MES pH 6.5 without salt, 0.01% Brij-35; 20 °C; single site plus a linear contribution; conditions: both partners purified
T3 construct: N-terminal domain of human RSV nucleoprotein N, residues 31-252; 15N-labelled for the NMR titration; also called N(31–252); 15N-NNTD; source: E. coli BL21(DE3), pET-N(31–252), purified as described previously [21]
T3 sequence (looked up): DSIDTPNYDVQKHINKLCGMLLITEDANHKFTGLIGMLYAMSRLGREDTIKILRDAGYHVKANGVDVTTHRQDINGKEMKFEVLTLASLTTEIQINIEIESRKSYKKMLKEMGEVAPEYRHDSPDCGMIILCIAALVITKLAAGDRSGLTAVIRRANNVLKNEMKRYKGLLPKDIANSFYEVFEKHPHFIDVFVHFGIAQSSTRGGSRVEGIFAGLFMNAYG

[2] = target: T3, RSV nucleoprotein N-terminal domain …; assay: fluorescence polarisation; 200 nM F11, NNTD 0.1–120 µM; 20 mM MES pH 6.5, 250 mM NaCl, 0.01% Brij-35; 20 °C; single site model; saturation not reached; conditions: both partners purified

T1 sequence (P03418 whole entry, looked up, the tested form may be a part, one chain of several): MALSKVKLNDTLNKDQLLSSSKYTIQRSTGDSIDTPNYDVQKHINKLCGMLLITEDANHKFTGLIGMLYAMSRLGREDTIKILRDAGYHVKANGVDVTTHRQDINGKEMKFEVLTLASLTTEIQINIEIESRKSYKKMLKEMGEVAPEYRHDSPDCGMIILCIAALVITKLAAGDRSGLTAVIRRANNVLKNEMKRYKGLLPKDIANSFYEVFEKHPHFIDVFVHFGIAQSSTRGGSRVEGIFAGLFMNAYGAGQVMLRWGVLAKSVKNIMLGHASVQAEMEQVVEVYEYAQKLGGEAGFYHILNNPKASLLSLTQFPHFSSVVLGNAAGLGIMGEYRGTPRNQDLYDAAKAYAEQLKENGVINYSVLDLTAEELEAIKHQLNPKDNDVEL

## O=C(O)c1cc(C(=O)O)n(Cc2ccc(Cl)cc2Cl)n1 [M76, 1-(2,4-dichlorobenzyl)-1H-pyrazole-3,5-dicarboxylic acid]
RSV N-RNA complex; fluorescent probe F7E 200 nM, 10 µM N-RNA, Tris pH 8 without salt, read-out: IC50
  IC50: 48 ± 5 µM
RSV N-RNA complex; fluorescent probe F7E 200 nM, 10 µM N-RNA, from IC50 and Kd 2.5 µM, read-out: Ki
  Ki: 8 µM
RSV N-RNA complex; fluorescent probe F11 200 nM, 10 µM N-RNA, Tris pH 8 without salt, read-out: IC50
  IC50: 12.6 µM and 13 µM
RSV N-RNA complex; fluorescent probe F11 200 nM, 10 µM N-RNA, from IC50 and Kd 7.6 µM with IC50-to-Ki server, read-out: Ki
  Ki: 3 µM
RSV N-RNA complex; fluorescent probe fluorescein 1 200 nM, 20 µM N-RNA, read-out: M76 IC50
  IC50: 27 ± 2 µM
RSV N-RNA complex; fluorescent probe fluorescein 1, 20 µM N-RNA, from IC50 and Kd, read-out: M76 Ki
  Ki: 13 µM
RSV N-RNA complex; fluorescent probe fluorescein ethyl ester 3 200 nM, 20 µM N-RNA, read-out: M76 IC50
  IC50: 65 ± 9 µM
RSV N-RNA complex; fluorescent probe fluorescein ethyl ester 3, 20 µM N-RNA, from IC50 and Kd, read-out: M76 Ki
  Ki: 50 µM
RSV N-RNA complex; fluorescent probe fluorescein methyl ester 2 200 nM, 20 µM N-RNA, read-out: M76 IC50
  IC50: 46 ± 7 µM
RSV N-RNA complex; fluorescent probe fluorescein methyl ester 2, 20 µM N-RNA, from IC50 and Kd, read-out: M76 Ki
  Ki: 32 µM
RSV N-RNA complex; probe BCN5E 200 nM, [N-RNA] 2 µM, Tris pH 8, read-out: Fitted IC50
  IC50: 7 ± 0.6 µM
RSV N-RNA complex; probe BCN5E 200 nM, [N-RNA] 20 µM, Tris pH 8, read-out: Fitted IC50
  IC50: 26 ± 2 µM
RSV N-RNA complex; probe BCN5E, [N-RNA] 2 µM, IC50-to-Ki server, read-out: Ki
  Ki: 4.8 µM
RSV N-RNA complex; probe BCN5E, [N-RNA] 20 µM, IC50-to-Ki server, read-out: Ki
  Ki: 3.6 µM
RSV N-RNA complex; probe BCN5E, [N-RNA] 2 and 20 µM, read-out: Ki values for inhibition of BCN5E
  Ki: 3.6 to 4.8 µM
RSV N-RNA complex; probe BCN6E 200 nM, [N-RNA] 2 µM, Tris pH 8, read-out: Fitted IC50
  IC50: 2.7 ± 0.2 µM
RSV N-RNA complex; probe BCN6E 200 nM, [N-RNA] 10 µM, Tris pH 8, read-out: Fitted IC50
  IC50: 14 ± 1 µM
RSV N-RNA complex; probe BCN6E, [N-RNA] 2 µM, IC50-to-Ki server, read-out: Ki
  Ki: 0.7 µM
RSV N-RNA complex; probe BCN6E, [N-RNA] 10 µM, IC50-to-Ki server, read-out: Ki
  Ki: 1.1 µM
RSV N-RNA complex; probe BCN8E 200 nM, [N-RNA] 2 µM, Tris pH 8, read-out: Fitted IC50
  IC50: 4.5 ± 0.4 µM
RSV N-RNA complex; probe BCN8E 200 nM, [N-RNA] 5 µM, Tris pH 8, read-out: Fitted IC50
  IC50: 13 ± 2 µM
RSV N-RNA complex; probe BCN8E, [N-RNA] 2 µM, IC50-to-Ki server, read-out: Ki
  Ki: 1.3 µM
RSV N-RNA complex; probe BCN8E, [N-RNA] 5 µM, IC50-to-Ki server, read-out: Ki
  Ki: 2 µM
RSV N-RNA complex; probe BCN10EE 200 nM, [N-RNA] 2 µM, Tris pH 8, read-out: Fitted IC50
  IC50: 8.9 ± 0.6 µM
RSV N-RNA complex; probe BCN10EE 200 nM, inhibitor M76, [N-RNA] 1 µM, Tris pH 8, read-out: Fitted IC50
  IC50: 8.5 ± 0.6 µM
RSV N-RNA complex; probe BCN10EE, [N-RNA] 2 µM, IC50-to-Ki server, read-out: Ki
  Ki: 0.5 µM
RSV N-RNA complex; probe BCN10EE, inhibitor M76, [N-RNA] 1 µM, IC50-to-Ki server, read-out: Ki
  Ki: 1.1 µM
RSV N-RNA complex; probe BCN11SE 200 nM, [N-RNA] 5 µM, Tris pH 8, read-out: Fitted IC50
  IC50: 17 ± 2 µM
RSV N-RNA complex; probe BCN11SE, [N-RNA] 5 µM, IC50-to-Ki server, read-out: Ki
  Ki: 1.8 µM
RSV NNTD
  IC50: 28 ± 5 µM
  Ki: 2.5 µM

B1: F11 (fluorescein-5-thiourea-labelled RSV P11 peptide) (peptide)
peptide: {FITC}-DSDNDLSLEDF
notes: C-terminal 11 residues of RSV phosphoprotein P; also called F_(11SS); FTU-P11; source: bought P11 peptide (GeneCust), FITC coupled in solution, HPLC purified
[1]
  Kd: 0.6 ± 0.1 µM
[2]
  Kd: 90 ± 15 µM

Source: article PMC9820559, “Investigation of the Fuzzy Complex between RSV Nucleoprotein and Phosphoprotein to Optimize an Inhibition Assay by Fluorescence Polarization” (International Journal of Molecular Sciences, 2022)
